{"source": "patent US4547369A", "about": "“Antiviral agent” (Cabinet Harle & Phelip, priority 1973, dated 1985)", "system": "EMC virus, strain VR 125", "assay": "HPA 23 and murine interferon in EMC infected mice", "type": "in vivo", "details": "no HPA 23", "text": "Synergism occurs between HPA 23 and murine interferon to combat viral infections in mice.\n*Number of survival mice on inoculated mice\n**range of death for dead mice", "key": {"[1]": {"details": "Interferon 1:3 25.000 I.U./mouse i.p."}, "[2]": {"details": "Interferon 1:9 8.000 I.U./mouse i.p."}, "[3]": {"details": "Interferon undiluted 75.000 I.U./mouse i.p."}, "[4]": {"details": "Interferon undiluted 75.000 I.U./mouse i.v."}}}
{"substance": "Interferon", "values": [{"measurement": "Number of survival mice on inoculated mice", "setting": "[1]", "result": "3/10"}, {"measurement": "range of death for dead mice", "setting": "[1]", "result": "5.5 ± 3.0", "unit": "days"}, {"measurement": "Number of survival mice on inoculated mice", "setting": "[2]", "result": "1/10"}, {"measurement": "range of death for dead mice", "setting": "[2]", "result": "4.4 ± 2.1", "unit": "days"}, {"measurement": "Number of survival mice on inoculated mice", "setting": "[3]", "result": "5/10"}, {"measurement": "range of death for dead mice", "setting": "[3]", "result": "7.1 ± 3.1", "unit": "days"}, {"measurement": "Number of survival mice on inoculated mice", "setting": "[4]", "result": "6/10"}, {"measurement": "range of death for dead mice", "setting": "[4]", "result": "7.7 ± 2.9", "unit": "days"}]}
